Experimental data from patent US20160289728A1, “METHOD FOR DETECTING FLUORESCENCE OR ABSORBANCE, METHOD FOR SUPPRESSING BACKGROUND, METHOD FOR MEASURING ADP, METHOD FOR MEASURING ACTIVITY OF ADP-SYNTHESIZING ENZYME, AND METHOD FOR MEASURING ACTIVITY OF GLUCOSYLTRANSFERASE” (The University of Tokyo, priority 2013, published 2016).
Read-outs that look alike come from different tables or passages of the source.

Experiments:
[1] = test system: enzymatic coupling reaction; test: Influence on enzymatic coupling itself (25 μM ADP instead of CMP); format: biochemical; settings: 25 μM ADP instead of 50 μM CMP
Description: In addition, the same operations were performed using 25 μM ADP instead of 50 μM CMP, and an influence of Ap5A on enzymatic coupling itself was studied. In addition, some of the reaction solution after the kinase reaction of CMPK1 was used, an amount of produced CDP was measured by the HPLC analysis method described in Example 14, and an inhibitory activity was determined by an HPLC method.

[2] = target: T1, CMPK1 (Homo sapiens, UniProt P30085); test: Inhibition of CMPK1 measured by the enzymatic coupling fluorescence method; format: biochemical; settings: enzymatic coupling with 20 mM N-ethylmaleimide; matched HPLC method
T1 construct: purchased Prospec pKa-002-b
T1 sequence (P30085 1-196): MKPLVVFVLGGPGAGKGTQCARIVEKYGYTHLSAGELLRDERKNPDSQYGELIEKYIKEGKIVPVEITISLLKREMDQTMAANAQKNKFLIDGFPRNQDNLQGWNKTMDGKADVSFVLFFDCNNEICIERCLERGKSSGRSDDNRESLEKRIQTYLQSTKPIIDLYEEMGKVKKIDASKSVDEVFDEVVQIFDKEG
Description: Enzyme inhibitory activities of Ap5A (P^1,P^5-Di(adenosine-5′)pentaphosphate) in which inhibitory activities of dictyostelium (Dictyostelium discoideum) on CMP kinase have been reported (J. Biol. Chem, Vol. 265, No. 11, pp. 6339-6345, 1990) on CMPK1 were measured using a method of the present invention. A 0 to 3 mM Ap5A (1 μl) (catalog number D4022 commercially available from Sigma-Aldrich) solution and 50 μM CMP (2 μl) were added to a 384-well microplate, and 200 μM ATP (2 μi), 3 μg/ml CMPK1, and 4 mM DTT were added thereto (a buffer solution composition included 100 mM Tris-HCl (pH 9), 13.5 mM MgCl2, 150 mM KCl, and 0.1% TritonX-100). The result was covered with a plate seal and incubated for 1 hour at 37° C. Then, the result was cooled at room temperature, and the mixed solution for enzymatic coupling (5 μl) containing 20 mM N-ethylmaleimide was added and incubated for 60 minutes at 25° C. in darkness. Then, fluorescence was measured using a plate reader. A group containing no Ap5A was set as a control (an inhibition rate of 0%), a group containing no CMPK1 was set as a control (an inhibition rate of 100%), and inhibition rates of Ap5A of respective concentrations on CMPK1 were calculated.

[3] = target: T2, human FUT7 (Homo sapiens, UniProt Q11130); test: Inhibition of FUT7 measured by HPLC quantification of produced GDP; format: biochemical; settings: FUT7 1 μg/ml, read-out: IC50 value, inhibitory activity on FUT7
T2 sequence (Q11130 1-342): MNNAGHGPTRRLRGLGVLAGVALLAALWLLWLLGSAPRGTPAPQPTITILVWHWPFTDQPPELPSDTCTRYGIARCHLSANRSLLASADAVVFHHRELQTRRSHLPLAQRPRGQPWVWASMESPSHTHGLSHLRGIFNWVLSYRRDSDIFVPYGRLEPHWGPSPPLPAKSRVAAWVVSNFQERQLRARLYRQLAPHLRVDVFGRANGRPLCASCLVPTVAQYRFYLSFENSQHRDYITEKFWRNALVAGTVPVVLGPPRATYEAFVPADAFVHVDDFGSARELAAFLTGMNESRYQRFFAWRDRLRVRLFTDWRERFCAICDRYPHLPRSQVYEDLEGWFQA
Description: (§1) In addition, the same operations were performed using 50 μM GDP instead of 100 μM GDP-fucose, and an influence of enzymatic coupling itself on gallic acid was studied. In addition, an amount of GDP produced was quantified by HPLC analysis using some of the reaction solution after the FUT7 enzymatic reaction, and an inhibitory activity was determined by an HPLC method.
HPLC conditions were as follows: column: YMC-Triart C18 (commercially available from Ymc Corporation, particle size: 5 μm, and diameter: 4.6 mm×length: 150 mm), eluate: 50 mM KH2PO4—K2HPO4 (10:1), flow rate: 1 ml/min, and detection: UV 260 nm.

[4] = test system: enzymatic coupling reaction; test: Influence on enzymatic coupling itself (50 μM GDP instead of GDP-fucose); format: biochemical; settings: 50 μM GDP instead of 100 μM GDP-fucose
Description: as §1

[5] = target: T2, human FUT7; settings: reported in Arch. Biochem. Biophys, Vol. 425, No. 1, pp. 51-57, 2004; cited from earlier work
[6] = target: T2, human FUT7; test: Inhibition of FUT7 measured by the enzymatic coupling fluorescence method of the invention; format: biochemical; settings: method of the present invention, FUT7 1 μg/ml; read-out: IC50 value, inhibitory activity on FUT7
Description: 100 μM GDP-fucose (2.5 μl), 6 mg/ml fetuin, and 0 to 4 μg/ml FUT7 (2.5 μl) were added to a 384-well microplate (a buffer solution included 50 mM Tris-HCl (pH 7.5), 5 mM MgCl2, 10 mM MnCl2, and 0.1% Triton X-100), covered with a plate seal (catalog number 1-6774-01 commercially available from AS ONE corporation) and incubated for 1 hour at 37° C. After being cooled to room temperature, the mixed solution A for the first process (5 μl) was added to the result and incubated for 1 hour at 25° C. The mixed solution B for the second process (10 μl) was added to the result, and incubated for 30 minutes at 25° C. Fluorescence thereof was measured similarly to Example 1. A fluorescence value according to an enzyme concentration was confirmed.
When enzyme activities of FUT7 were measured using the method described in Example 4, an inhibitory effect of gallic acid on FUT7 was studied according to the same operations as in Example 4 except that a reaction of FUT7 (a concentration of 1 μg/ml in a transglucosylation solution) was caused in the presence of gallic acid. A group containing no gallic acid was set as a control (an inhibition rate of 0%), a group containing no FUT7 was set as a control (an inhibition rate of 100%), and inhibition rates of gallic acid of respective concentrations of FUT7 were calculated.

Row | Compound | inhibition of the enzymatic coupling reaction itself [1] | inhibitory activity on CMPK1 [2] | IC50 [3] [µM] | inhibition of the enzymatic coupling reaction itself [4] | IC50 [5] [µM] | IC50 [6] [µM]
1 | Nc1ncnc2c1ncn2[C@@H]1O[C@H](COP(=O)(O)OP(=O)(O)OP(=O)(O)OP(=O)(O)OP(=O)(O)OC[C@H]2O[C@@H](n3cnc4c(N)ncnc43)[C@H](O)[C@@H]2O)[C@@H](O)[C@H]1O [Ap5A, P^1,P^5-Di(adenosine-5′)pentaphosphate] | did not inhibit the enzymatic coupling reaction itself at all | inhibition of CMPK1 |  |  |  | 
2 | O=C(O)c1cc(O)c(O)c(O)c1 [gallic acid] |  |  | ~10 | did not inhibit the enzymatic coupling reaction itself at all | 5.4 | ~10
